{"source": "patent US11505574B2", "about": "“Modulation of P53 for the treatment of cancer” (THE REGENTS OF THE UNIVERSITY OF CALIFORNIA, priority 2016, dated 2022)", "key": {"[1]": {"tested_on": "MIA-PaCa-2 pancreatic cancer cells", "assay": "MIA-PaCa-2 cell colony formation assay (peptides)", "format": "cell-based, human", "conditions": "miaPaCa2 cells (mutant p53); 10 μM for 20 minutes then 0.25 ng/mL doxorubicin 18 hours (FIG. 37D)", "source_text": "[…] […] After colonies formed they were fixed (i.e., using 7:1 MeOH:glacial acetic acid) and stained with crystal violet."}, "HaCaT cells": {"tested_on": "HaCaT cells", "assay": "HaCaT cell colony formation assay", "format": "cell-based", "conditions": "HaCaT cells (mutant p53); 10 μM for 20 minutes then 0.5 ng/mL doxorubicin 18 hours (FIG. 37D)", "procedure": "For the experiments shown in FIG. 37D, HaCaT and MiaPaCa2 cells were grown in 6-well plates at 500 cells per well. The following day, 10 μM Pen-Ctrl (SEQ ID NO:10), Pen-Pep23 (SEQ ID NO:9), or Pen-Pep8 (SEQ ID NO:50) were added to the cells for 20 minutes followed by treatment with 0.5 ng/mL doxorubicin (for HaCaT cells) or 0.25 ng/mL doxorubicin (for miaPaCa2 cells) for 18 hours, then the media was changed to fresh DMEM. After colonies formed they were fixed (i.e., using 7:1 MeOH:glacial acetic acid) and stained with crystal violet."}, "p-eIF4E (Ser209)": {"tested_on": "p-eIF4E (Ser209)", "assay": "Western blot for p-eIF4E (Ser209) in RKO, MCF7 and miaPaCa2 cells", "format": "cell-based", "procedure": "For the experiments shown in FIG. 37A, RKO cells were plated at a seed density of 1×10^5 cells per well in 12-well plates the night before the addition of peptides. For PEP1 (SEQ ID NO:13) plus Ctrl (SEQ ID NO:11), Pep8 (SEQ ID NO:1), Pep8-SR (SEQ ID NO:53), and Pep8-SK (SEQ ID NO:52), 375 nM of peptide was added to […] PEP1 in 100 μL serum-free DMEM for 20 minutes before being added to the cells for 18 hours. After 18 hours, cells were harvested with 1×SDS-lysis buffer (150 μL) and then lysate was run on a 10% SDS-PAGE gel followed by Western blotting for p53, p-eIF4E (Ser209), and actin.\nFor the experiments shown in FIG. 37B, MCF7 cells were grown the night before in a 6-well plate seeded with 2×10^5 cells. The next day cells were treated with 2.5 μM Pen-Ctrl (SEQ ID NO:10) or Pen-Pep8 (SEQ ID NO:50) for 18 hours. The following day, the cells were lysed with 1×SDS-lysis buffer (250 μL) and lysate was run on a 10% SDS-PAGE gel. 20 μl was loaded per well followed by Western blot for p-eIF4E (Ser-209), p53, and actin.\nFor the experiments shown in FIG. 37C, 2×10^5 miaPaCa2 cells per well were plated the day before in a 6-well plate. The following day, the cells were treated with 2.5 μM Pen-Ctrl (SEQ ID NO:10) or Pen-Pep8 (SEP ID NO:50) for 30 minutes then treated with 6.25 ng/mL doxorubicin for 18 hours. […]"}, "RKO cells": {"tested_on": "RKO cells", "assay": "RKO cell colony formation assay (peptides)", "format": "cell-based, human", "conditions": "5 μM, 3.125 ng/mL doxorubicin 48 hours (FIG. 34D)", "procedure": "For the experiments shown in FIG. 34D, RKO cells were seeded on a 6-well plate at a seed density of 2×10^3 cells per well. The following day the cells were treated with 5 μM Pen-Ctrl, 5 μM Pen-Pep23, or 5 μM Pen-Pep8. The following day, 3.125 ng/mL doxorubicin was added to the cells for 48 hours. Subsequently, the cell media was changed every 3 days until colonies were visible. The cells were fixed and stained with crystal violet."}, "RKO tumor xenograft": {"tested_on": "RKO tumor xenograft", "assay": "RKO tumor xenograft model in nude mice", "format": "in vivo", "procedure": "6-week-old female nude mice were used for the xenograft study (FIG. 35A). 1×10^6 RKO cells in a 1:1 mixture of matrigel:DMEM (serum-free) were injected into the right flank of the nude mice. After tumors had grown to a size of about 100 mm^3, treatment with either Pen-Ctrl or Pen-Pep8 (5 μM in 50 μL sterile PBS) was administered by intratumoral injection every 2 days for 2 weeks. After treatment, the animals were sacrificed and tumors were excised, measured, and weighed followed by being flash frozen (n=6 for each group). Xenograft volume over the course of treatment and final tumor weight after the animals were sacrificed are shown in FIGS. 35B and 35C, respectively. Furthermore, pieces of the frozen xenografts were cut using a sterile scalpel and then the tumor tissue was lysed and lysate was run on a 10% SDS-PAGE gel followed by Western blotting for Puma, p53, and actin."}, "p53 [2]": {"tested_on": "p53", "assay": "Western blot for p53 and downstream targets in RKO cells treated with peptides", "format": "cell-based, human", "conditions": "RKO cells"}, "p53 [3]": {"tested_on": "p53", "assay": "Western blot for p53 and downstream targets in MCF7 cells treated with peptides", "format": "cell-based, human", "conditions": "MCF7 cells"}, "p53 (mutant)": {"tested_on": "p53 (mutant)", "assay": "Western blot for mutant p53 in miaPaCa2 cells treated with Pen-Pep8", "format": "cell-based", "conditions": "2.5 μM for 30 minutes then 6.25 ng/mL doxorubicin 18 hours (FIG. 37C)", "procedure": "For the experiments shown in FIG. 37C, 2×10^5 miaPaCa2 cells per well were plated the day before in a 6-well plate. The following day, the cells were treated with 2.5 μM Pen-Ctrl (SEQ ID NO:10) or Pen-Pep8 (SEP ID NO:50) for 30 minutes then treated with 6.25 ng/mL doxorubicin for 18 hours. The following the day, the cells were harvested with 350 μL 1×SDS-lysis buffer and 20 μL of lysate was loaded per well onto a 10% SDS-PAGE gel followed by Western blot for total eIF4E, p-eIF4E (Ser209), p53 (mutant), and actin."}}, "data": [{"sequence": "RQIKIWFQNRRMKWKKYPYAASPA [Pen-Pep8, Penetratin fused to Pep8]", "values": [{"measurement": "colony formation, sensitization to low-dose doxorubicin", "setting": "[1]", "value": "sensitized to low-dose doxorubicin"}, {"measurement": "colony formation, sensitization to low-dose doxorubicin", "setting": "HaCaT cells", "value": "sensitized to low-dose doxorubicin"}, {"measurement": "p-eIF4E (Ser-209) level (Western blot)", "setting": "p-eIF4E (Ser209); MCF7 cells, 2.5 μM, 18 hours (FIG. 37B)", "value": "reduced p-eIF4E"}, {"measurement": "p-eIF4E (Ser209) level (Western blot)", "setting": "p-eIF4E (Ser209); miaPaCa2 cells, 2.5 μM for 30 minutes then 6.25 ng/mL doxorubicin 18 hours (FIG. 37C)", "value": "substantial decrease in p-eIF4E"}, {"measurement": "colony formation, sensitization to low-dose doxorubicin", "setting": "RKO cells", "value": "sensitized MCF7 and RKO cells to low-dose doxorubicin"}, {"measurement": "RKO tumor cell growth in a xenograft model (tumor volume, tumor weight)", "setting": "RKO tumor xenograft; female nude mice, 5 μM in 50 μL PBS, intratumoral injection every 2 days for 2 weeks, versus Pen-Ctrl (FIGS. 35A-35C)", "value": "inhibited RKO tumor cell growth"}, {"measurement": "p53 and Puma protein expression in xenograft tumors (Western blot)", "setting": "RKO tumor xenograft; lysate from RKO xenograft tumors after treatment, versus Pen-Ctrl (FIG. 35D)", "value": "increased p53 protein expression, as well as its target, Puma"}, {"measurement": "sensitization to low-dose etoposide (p53 Western blot)", "setting": "p53 [2]; 1.5 μM for 20 minutes then 0.125 ng/mL etoposide 18 hours (FIG. 34I)", "value": "also to low-dose etoposide"}, {"measurement": "sensitization to low-dose doxorubicin (p53 Western blot)", "setting": "p53 [2]; 1.5 μM for 20 minutes then 6.25 ng/mL doxorubicin 18 hours (FIG. 34I)", "value": "sensitized to low-dose doxorubicin"}, {"measurement": "p53 expression with low dose doxorubicin (Western blot)", "setting": "p53 [2]; 2.5 μM for 20 minutes then 6.25 ng/mL doxorubicin 18 hours (FIG. 34A)", "value": "robust p53 expression"}, {"measurement": "p53 expression (Western blot)", "setting": "p53 [2]; 2.5 μM, 18 hours (FIG. 32B)", "value": "induced p53 expression"}, {"measurement": "p53 expression with low dose doxorubicin (Western blot)", "setting": "p53 [3]; 2.5 μM for 20 minutes then 6.25 ng/mL doxorubicin 18 hours (FIG. 34B)", "value": "robust p53 expression"}, {"measurement": "p53 expression (Western blot)", "setting": "p53 [3]; 2.5 μM, 18 hours (FIG. 32C)", "value": "induced p53 expression"}, {"measurement": "p53 protein levels (Western blot)", "setting": "p53 [3]; 2.5 μM, 18 hours (FIG. 37B)", "value": "increased p53 protein levels"}, {"measurement": "mutant p53 expression (Western blot)", "setting": "p53 (mutant)", "value": "decreased mutant p53 expression"}]}]}
